Measurements as given in US8012983B2, “Substituted triazolopyrazines useful for the treatment of degenerative and inflammatory diseases” (Galapagos NV, priority 2008, dated 2011).

Biological target: T1, MAPKAPK5 (Homo sapiens, UniProt Q8IW41)
T1 sequence (Q8IW41 1-471 isoform Q8IW41-2): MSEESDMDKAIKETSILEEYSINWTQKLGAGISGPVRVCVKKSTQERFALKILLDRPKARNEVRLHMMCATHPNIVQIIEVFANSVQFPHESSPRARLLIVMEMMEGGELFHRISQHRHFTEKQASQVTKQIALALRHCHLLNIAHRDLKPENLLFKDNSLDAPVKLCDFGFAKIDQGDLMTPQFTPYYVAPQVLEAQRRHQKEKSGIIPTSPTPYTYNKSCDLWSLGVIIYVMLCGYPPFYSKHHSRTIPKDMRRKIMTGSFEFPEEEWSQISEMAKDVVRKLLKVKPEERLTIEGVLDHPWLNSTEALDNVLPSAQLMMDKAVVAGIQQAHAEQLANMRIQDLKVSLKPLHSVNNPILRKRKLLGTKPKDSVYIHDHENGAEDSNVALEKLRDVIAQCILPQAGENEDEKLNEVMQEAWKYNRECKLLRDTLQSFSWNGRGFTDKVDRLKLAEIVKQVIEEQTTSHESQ
Test: MAPKAP-K5 FlashPlate kinase assay
Type: biochemical
Conditions: 0.6 μM ATP, 30 minutes, room temperature
Description: MAPKAP-K5 reactions are performed in FlashPlate format using 0.1 or 0.2 μCi 33P-ATP; 0.6 μM ATP; 1 mU MAPKAP-K5; 3 μM MAPKAP-K5 peptide substrate, incubated at room temperature for 30 minutes.
The MAPKAP-K5 kinase reaction is performed in a 384 well polypropylene plate (Matrix Technologies) and then transferred to a streptavidin-coated 384 well flashplate (Perkin-Elmer). To wells containing 2 μL test compound or standard inhibitor, 13 μL Enzyme mix or diluent are added using a Hydra (Robbins Scientific). Reactions are started by addition of 10 μL of [2.5×] substrate cocktail using a Multidrop (Thermo-Labsystems), to give final concentrations in the assay of: • 1 mU MAPKAP-K5 • 3 μM MAPKAP-K5 peptide substrate • 0.6 μM ATP • 0.004 μCi [33P]-γ-ATP/μL • 1× reaction buffer
Plates are incubated at room temperature for 30 minutes. Reactions are terminated by the addition of 25 μL EDTA (50 mM) to each well using a Micro-fill (Biotek). Reactions are transferred to a streptavidin-coated flashplate using a Zymark robotic system. Plates are incubated for 60 minutes at room temperature. All wells are washed 3 times with 100 μl phosphate buffered saline using a Tecan plate washer. Radioactivity is determined by scintillation counting of the flashplate (empty wells) on a Packard TopCount.
Enzyme Mix: • Enzyme • 50 mM Tris Hcl (pH 7.5) • 0.1 mM EGTA • 2 mM DTT • 1 mg/mL BSA
Reaction Buffer: • 50 mM Tris Hcl (pH 7.5) • 0.1 mM EGTA • 10 mM Magnesium acetate • 2 mM DTT

Structure (SMILES) | IC50 [nM]
CC(C)N1C[C@@H]2C[C@H]1CN2c1ccc(Nc2ncc(-c3ccc4c(c3)CNC4=O)n3ncnc23)cc1 [Compound 1, 5-{8-[4-((1S,4S)-5-Isopropyl-2,5-diaza-bicyclo[2.2.1]hept-2-yl)-phenylamino]-[1,2,4]triazolo[1,5-a]pyrazin-5-yl}-2,3-dihydro-isoindol-1-one] | 0.01 to 100
CC(C)N1C[C@@H]2C[C@H]1CN2c1ccc(Nc2ncc(-c3coc(C(N)=O)c3)n3ncnc23)cc1 [Compound 2, 4-{8-[4-((1S,4S)-5-Isopropyl-2,5-diaza-bicyclo[2.2.1]hept-2-yl)-phenylamino]-[1,2,4]triazolo[1,5-a]pyrazin-5-yl}-furan-2-carboxamide] | 0.01 to 100
CC(C)(C)N1C[C@@H]2C[C@H]1CN2c1ccc(Nc2ncc(-c3coc(C(N)=O)c3)n3ncnc23)cc1 [Compound 3, 4-{8-[4-((1S,4S)-5-tert-Butyl-2,5-diaza-bicyclo[2.2.1]hept-2-yl)-phenylamino]-[1,2,4]triazolo[1,5-a]pyrazin-5-yl}-furan-2-carboxamide] | 0.01 to 100
CC(C)N1C[C@@H]2C[C@H]1CN2c1ccc(Nc2ncc(-c3coc(C(N)=O)c3)n3ccnc23)cc1 [Compound 4, 4-{8-[4-((1S,4S)-5-Isopropyl-2,5-diaza-bicyclo[2.2.1]hept-2-yl)-phenylamino]-imidazo[1,2-a]pyrazin-5-yl}-furan-2-carboxamide] | 101 to 500
CC(C)N1C[C@@H]2C[C@H]1CN2c1ccc(Nc2ncc(-c3cc(C(N)=O)n[nH]3)n3ncnc23)cc1 [Compound 5, 5-{8-(4-((1S,4S)-5-isopropyl-2,5-diazabicyclo[2.2.1]heptan-2-yl)phenyl-amino)-[1,2,4]triazolo[1,5-a]pyrazin-5-yl}-1H-pyrazole-3-carboxamide] | 101 to 500
CC(C)(C)N1C[C@@H]2C[C@H]1CN2c1ccc(Nc2ncc(-c3coc(C(N)=O)c3)n3ccnc23)cc1 [Compound 6] | 101 to 500
CC(C)N1C[C@@H]2C[C@H]1CN2c1ccc(Nc2ncc(-c3cc[nH]c(=O)c3)n3ccnc23)cc1 [Compound 8, 4-{8-(4-((1S,4S)-5-isopropyl-2,5-diazabicyclo[2.2.1]heptan-2-yl)phenyl-amino)imidazo[1,2-a]pyrazin-5-yl}-1H-pyridin-2-one] | 101 to 500
CC(C)N1CC2CCC1CN2c1ccc(Nc2ncc(-c3coc(C(N)=O)c3)n3ncnc23)cc1 (stereo not shown) [Compound 9, 4-{8-(4-(5-isopropyl-2,5-diazabicyclo[2.2.2]octan-2-yl)phenylamino)[1,2,4]-triazolo[1,5-a]pyrazin-5-yl}-furan-2-carboxamide] | 0.01 to 100
CC(C)N1CC2CCC(C1)N2c1ccc(Nc2ncc(-c3coc(C(N)=O)c3)n3ccnc23)cc1 [Compound 11, 4-{8-(4-(3-isopropyl-3,8-diazabicyclo[3.2.1]octan-8-yl)phenylamino)-imidazo[1,2-a]pyrazin-5-yl}-furan-2-carboxamide] | 101 to 500
CC(C)N1C2CCC1CN(c1ccc(Nc3ncc(-c4coc(C(N)=O)c4)n4ncnc34)cc1)C2 [Compound 12, 4-{8-(4-(8-isopropyl-3,8-diazabicyclo[3.2.1]octan-3-yl)phenylamino)[1,2,4]-triazolo[1,5-a]pyrazin-5-yl}-furan-2-carboxamide] | 0.01 to 100
CC(C)N1C[C@@H]2C[C@H]1CN2c1ccc(Nc2ncc(-c3cc(C(N)=O)n[nH]3)n3ncnc23)cn1 [Compound 15, 5-{8-(6-((1S,4S)-5-isopropyl-2,5-diazabicyclo[2.2.1]heptan-2-yl)pyridin-3-ylamino)-[1,2,4]triazolo[1,5-a]pyrazin-5-yl}-1H-pyrazole-3-carboxylic acid amide] | 101 to 500
CC(C)(C)N1C[C@@H]2C[C@H]1CN2c1ccc(Nc2ncc(-c3ccc4c(c3)CNC4=O)n3ncnc23)cc1 [Compound 16, 5-{8-(4-((1S,4S)-5-tert-butyl-2,5-diazabicyclo[2.2.1]heptan-2-yl)phenylamino)-[1,2,4]triazolo-[1,5-a]pyrazin-5-yl}-2,3-dihydro-isoindol-1-one] | 101 to 500
CC(C)(C)N1C[C@@H]2C[C@H]1CN2c1ccc(Nc2ncc(-c3cc(C(N)=O)n[nH]3)n3ncnc23)cc1 [Compound 17, 5-{8-(4-((1S,4S)-5-tert-butyl-2,5-diazabicyclo[2.2.1]heptan-2-yl)phenyl-amino)-[1,2,4]triazolo[1,5-a]pyrazin-5-yl}-1H-pyrazole-3-carboxylic acid amide] | 101 to 500
CC(C)N1C[C@@H]2C[C@H]1CN2c1ccc(Nc2ncc(-c3ccc4c(c3)CNC4=O)n3ncnc23)cn1 [Compound 18, 5-{8-(6-((1S,4S)-5-isopropyl-2,5-diazabicyclo[2.2.1]heptan-2-yl)pyridin-3-ylamino)-[1,2,4]triazolo[1,5-a]pyrazin-5-yl}-2,3-dihydro-isoindol-1-one] | 101 to 500
CCOc1cc(-c2cnc(Nc3ccc(N4C[C@@H]5C[C@H]4CN5C(C)C)cc3)c3ncnn23)ccn1 [Compound 19, 5-(2-ethoxypyridin-4-yl)-N-(4-((1S,4S)-5-isopropyl-2,5-diazabicyclo[2.2.1]heptan-2-yl)phenyl)-[1,2,4]triazolo[1,5-a]pyrazin-8-amine] | > 1000
CC(C)N1C[C@@H]2C[C@H]1CN2c1ccc(Nc2ncc(-c3cc[nH]c(=O)c3)n3ncnc23)cc1 [Compound 20, 4-(8-(4-((1S,4S)-5-isopropyl-2,5-diazabicyclo[2.2.1]heptan-2-yl)phenylamino)-[1,2,4]triazolo[1,5-a]pyrazin-5-yl)pyridin-2(1H)-one] | > 1000
CCOC(=O)c1cc(-c2cnc(Nc3ccc(N4C[C@@H]5C[C@H]4CN5C(C)C)cc3)c3ncnn23)[nH]n1 [Compound 21, Ethyl 5-(8-(4-((1S,4S)-5-isopropyl-2,5-diazabicyclo[2.2.1]heptan-2-yl)phenylamino)-[1,2,4]triazolo[1,5-a]pyrazin-5-yl)-1H-pyrazole-3-carboxylate] | > 1000
CCOc1cc(-c2cnc(Nc3ccc(N4C[C@@H]5C[C@H]4CN5C(C)C)cc3)c3nccn23)ccn1 [Compound 22, 5-(2-ethoxypyridin-4-yl)-N-(4-((1S,4S)-5-isopropyl-2,5-diazabicyclo[2.2.1]heptan-2-yl)phenyl)imidazo[1,2-a]pyrazin-8-amine] | > 1000
CC(C)N1C[C@@H]2C[C@H]1CN2c1ccc(Nc2ncc(-c3noc(C(N)=O)n3)n3ncnc23)cc1 [Compound 23, 3-(8-(4-((1S,4S)-5-isopropyl-2,5-diazabicyclo[2.2.1]heptan-2-yl)phenylamino)-[1,2,4]triazolo[1,5-a]pyrazin-5-yl)-1,2,4-oxadiazole-5-carboxamide] | > 1000
CC(C)N1C[C@@H]2C[C@H]1CN2c1cccc(Nc2ncc(-c3coc(C(N)=O)c3)n3ncnc23)c1 [Compound 24, 4-(8-(3-((1S,4S)-5-isopropyl-2,5-diazabicyclo[2.2.1]heptan-2-yl)phenylamino)-[1,2,4]triazolo[1,5-a]pyrazin-5-yl)furan-2-carboxamide] | 0.01 to 100
CC(C)N1C[C@@H]2C[C@H]1CN2c1cccc(Nc2ncc(-c3coc(C(N)=O)c3)n3ccnc23)c1 [Compound 25, 4-(8-(3-((1S,4S)-5-isopropyl-2,5-diazabicyclo[2.2.1]heptan-2-yl)phenylamino)imidazo[1,2-a]pyrazin-5-yl)furan-2-carboxamide] | 101 to 500
CC(C)N1C[C@@H]2C[C@H]1CN2c1cccc(Nc2ncc(-c3ccc4c(c3)CNC4=O)n3ncnc23)c1 [Compound 26, 5-(8-(3-((1S,4S)-5-isopropyl-2,5-diazabicyclo[2.2.1]heptan-2-yl)phenylamino)-[1,2,4]triazolo[1,5-a]pyrazin-5-yl)isoindolin-1-one] | 101 to 500
